From patent US20010055573A1, “Delivery systems for active ingredients including sunscreen actives and methods of making same” (Shamrock Technologies, priority 1999, published 2001)

Experiment: Solubility of the sunscreen active in the preferred non-polar solvents
Assay type: physicochemical
Conditions: ethylferulate by itself, without lubricating wax as cosolvent
Source text: Thus, this embodiment of the present invention solves a significant problem which the prior art has heretofore been unable to overcome without emulsification, namely, the poor solubility of ethylferulate and other polar solid organic sunscreen actives in non-polar solvents, which causes difficulties in formulating sunscreen products in non-emulsified systems.

CCOC(=O)/C=C/c1ccc(O)c(OC)c1 [ethylferulate, ethyl ester of ferulic acid]
solubility in the preferred solvents: not soluble to any significant extent
